Where “and” joins values, the source holds several entries; their conditions need not be identical. Equal values may be shown once. Read-outs that look alike come from different tables or passages of the source. Ends that are not written are not given here. Peptide text beside a SMILES is read from it.
What was measured:
[1] = molecular target: ACE2:SARS-CoV-2 Spike interaction (UniProt P0DTC2+Q9BYF1); test: biochemical; format: binding
[2] = molecular target: SARS-CoV-2 Spike: ACE2 interaction (UniProt P0DTC2+Q9BYF1); test: biochemical; format: binding
[3] = Nanoparticle formation of peptides with ADGN-106: mean size and polydispersity (Zetasizer); format: physicochemical; conditions: 25° C.; for Mean Size (nm): peptide/ADGN-106 complexes; for PI: polydispersity index of peptide/ADGN-106 complexes
Description: We then tested the ability of the different peptides to form nanoparticle organization in the presence of ADGN-106 or ADGN-100 peptide. […] Peptides were complexed with 5 or 10 molar excess of ADGN-106.

[4] = read-out: ACE2:SARS-CoV-2 Spike IC50
[5] = read-out: SARS-CoV-2 Spike:ACE2 IC50
[6] = IC50, block of ACE2:SARS-CoV-2 Spike interaction
[7] = IC50, block of SARS-CoV-2 Spike: ACE2 interaction

ACE2:SARS-CoV-2 Spike interaction, sequence (Q9BYF1 18-740, one chain of several): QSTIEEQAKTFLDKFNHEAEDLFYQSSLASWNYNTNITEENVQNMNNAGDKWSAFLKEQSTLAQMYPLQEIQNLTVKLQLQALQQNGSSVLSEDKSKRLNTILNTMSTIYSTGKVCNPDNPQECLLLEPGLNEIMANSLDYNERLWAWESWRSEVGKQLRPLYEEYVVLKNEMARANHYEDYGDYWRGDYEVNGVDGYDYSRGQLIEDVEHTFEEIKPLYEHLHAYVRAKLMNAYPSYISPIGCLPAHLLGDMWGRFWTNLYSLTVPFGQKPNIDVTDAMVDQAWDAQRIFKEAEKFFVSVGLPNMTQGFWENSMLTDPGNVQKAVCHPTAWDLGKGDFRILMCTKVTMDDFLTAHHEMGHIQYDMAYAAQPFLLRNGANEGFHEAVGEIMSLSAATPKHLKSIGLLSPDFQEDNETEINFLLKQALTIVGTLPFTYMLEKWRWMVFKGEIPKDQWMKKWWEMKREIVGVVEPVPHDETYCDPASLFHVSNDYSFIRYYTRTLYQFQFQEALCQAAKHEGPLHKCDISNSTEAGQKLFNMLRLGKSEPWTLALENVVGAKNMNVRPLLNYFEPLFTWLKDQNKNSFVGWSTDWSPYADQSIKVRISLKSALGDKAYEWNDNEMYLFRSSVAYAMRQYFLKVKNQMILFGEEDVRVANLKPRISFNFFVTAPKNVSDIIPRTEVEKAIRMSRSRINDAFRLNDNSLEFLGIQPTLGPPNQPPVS
SARS-CoV-2 Spike: ACE2 interaction, sequence (Q9BYF1 18-740, one chain of several): as above

Row | Compound | IC50 ([1]; ACE2:SARS-CoV-2 Spike IC50) | IC50 ([2]; SARS-CoV-2 Spike:ACE2 IC50) | other results
1 | CC(C)C[C@H](NC(=O)[C@H](Cc1ccc(O)cc1)NC(=O)[C@H](CC(N)=O)NC(=O)[C@H](Cc1ccc(O)cc1)NC(=O)[C@H](CC(N)=O)NC(=O)CNC(=O)CNC(=O)[C@@H](NC(=O)[C@H](CCCCN)NC(=O)[C@@H](N)CO)C(C)C)C(=O)N[C@@H](Cc1ccc(O)cc1)C(=O)N[C@@H](CCCNC(=N)N)C(=O)O [Seq1] | > 10 µM | > 10 µM | –
2 | CC(C)C[C@H](NC(=O)[C@H](CCCNC(=N)N)NC(=O)[C@H](Cc1ccc(O)cc1)NC(=O)[C@H](CC(C)C)NC(=O)[C@H](Cc1ccc(O)cc1)NC(=O)[C@H](CC(N)=O)NC(=O)[C@H](Cc1ccc(O)cc1)NC(=O)[C@H](CC(N)=O)NC(=O)CNC(=O)CN)C(=O)N[C@@H](Cc1ccccc1)C(=O)N[C@@H](CCCNC(=N)N)C(=O)N[C@@H](CCCCN)C(=O)O [Seq4] | > 10 µM | > 10 µM | –
3 | CC(C)[C@H](NC(=O)CNC(=O)[C@H](CC(N)=O)NC(=O)[C@@H](N)CS)C(=O)N[C@@H](CCC(=O)O)C(=O)NCC(=O)N[C@@H](Cc1ccccc1)C(=O)N[C@@H](CC(N)=O)C(=O)N[C@@H](CS)C(=O)O [Seq6] (H-CNGVEGFNC-OH) | > 10 µM | > 10 µM | –
4 | CC(C)C[C@H](NC(=O)[C@@H]1CCCN1C(=O)[C@H](Cc1ccccc1)NC(=O)[C@@H](N)Cc1ccc(O)cc1)C(=O)N[C@@H](CCC(N)=O)C(=O)N[C@@H](CO)C(=O)N[C@@H](Cc1ccc(O)cc1)C(=O)NCC(=O)N[C@@H](Cc1ccccc1)C(=O)N[C@@H](CCC(N)=O)C(=O)N1CCC[C@H]1C(=O)N[C@H](C(=O)N[C@@H](CC(N)=O)C(=O)NCC(=O)N[C@H](C(=O)NCC(=O)N[C@@H](Cc1ccc(O)cc1)C(=O)N[C@@H](CCC(N)=O)C(=O)O)C(C)C)[C@@H](C)O [Seq8] | > 10 µM | > 10 µM | –
5 | CC(=O)N[C@@H](CCCCN)C(=O)N[C@H](C(=O)N[C@@H](Cc1ccccc1)C(=O)N[C@@H](CC(C)C)C(=O)N[C@@H](CC(=O)O)C(=O)N[C@@H](CCCCN)C(=O)N[C@@H](Cc1ccccc1)C(=O)N[C@@H](CC(N)=O)C(=O)N[C@@H](Cc1c[nH]cn1)C(=O)N[C@@H](CCC(=O)O)C(=O)N[C@@H](C)C(=O)N[C@@H](CCC(=O)O)C(=O)N[C@@H](CC(=O)O)C(=O)N[C@@H](CC(C)C)C(=O)N[C@@H](Cc1ccccc1)C(=O)N[C@@H](Cc1ccc(O)cc1)C(=O)N[C@@H](CO)C(=O)NCCCCCC(=O)N[C@@H](CC(C)C)C(=O)N[C@@H](Cc1c[nH]c2ccccc12)C(=O)N[C@@H](CCCNC(=N)N)C(=O)N[C@@H](C)C(=O)N[C@@H](CC(C)C)C(=O)N[C@@H](Cc1c[nH]c2ccccc12)C(=O)N[C@@H](CCCNC(=N)N)C(=O)N[C@@H](CC(C)C)C(=O)N[C@@H](Cc1c[nH]c2ccccc12)C(=O)N[C@@H](CCCNC(=N)N)C(=O)N[C@@H](CO)C(=O)N[C@@H](CC(C)C)C(=O)N[C@@H](Cc1c[nH]c2ccccc12)C(=O)N[C@@H](CCCNC(=N)N)C(=O)N[C@@H](CC(C)C)C(=O)N[C@@H](CC(C)C)C(=O)N[C@@H](Cc1c[nH]c2ccccc12)C(=O)N[C@@H](CCCCN)C(N)=O)[C@@H](C)O [Seq35] | 0.728 µM | 0.546 µM | Mean Size (nm) [3]: 44 ± 10 nm; PI [3]: 0.22
6 | CC[C@H](C)[C@H](NC(=O)[C@H](CCCNC(=N)N)NC(=O)[C@H](Cc1ccccc1)NC(=O)[C@H](CC(=O)O)NC(=O)CNC(=O)[C@H](CCCCN)NC(=O)CNC(=O)[C@H](CC(C)C)NC(=O)[C@H](CC(=O)O)NC(=O)[C@H](Cc1c[nH]c2ccccc12)NC(=O)[C@H](C)NC(=O)[C@@H](NC(C)=O)[C@@H](C)O)C(=O)NCCCCCC(=O)N[C@@H](CC(C)C)C(=O)N[C@@H](Cc1c[nH]c2ccccc12)C(=O)N[C@@H](CCCNC(=N)N)C(=O)N[C@@H](C)C(=O)N[C@@H](CC(C)C)C(=O)N[C@@H](Cc1c[nH]c2ccccc12)C(=O)N[C@@H](CCCNC(=N)N)C(=O)N[C@@H](CC(C)C)C(=O)N[C@@H](Cc1c[nH]c2ccccc12)C(=O)N[C@@H](CCCNC(=N)N)C(=O)N[C@@H](CO)C(=O)N[C@@H](CC(C)C)C(=O)N[C@@H](Cc1c[nH]c2ccccc12)C(=O)N[C@@H](CCCNC(=N)N)C(=O)N[C@@H](CC(C)C)C(=O)N[C@@H](CC(C)C)C(=O)N[C@@H](Cc1c[nH]c2ccccc12)C(=O)N[C@@H](CCCCN)C(N)=O [Seq36] | > 1 µM | > 1 µM | –
7 | CSCC[C@H](NC(=O)[C@H](CO)NC(=O)[C@H](CC(N)=O)NC(=O)[C@H](CCC(=O)O)NC(=O)[C@H](Cc1c[nH]c2ccccc12)NC(=O)[C@H](Cc1ccccc1)NC(=O)CNC(=O)[C@H](CCC(N)=O)NC(=O)[C@@H](NC(=O)[C@H](CCSC)NC(=O)[C@H](CC(N)=O)NC(C)=O)[C@@H](C)O)C(=O)N[C@@H](CC(C)C)C(=O)N[C@H](C(=O)N[C@@H](CC(=O)O)C(=O)NCCCCCC(=O)N[C@@H](CC(C)C)C(=O)N[C@@H](Cc1c[nH]c2ccccc12)C(=O)N[C@@H](CCCNC(=N)N)C(=O)N[C@@H](C)C(=O)N[C@@H](CC(C)C)C(=O)N[C@@H](Cc1c[nH]c2ccccc12)C(=O)N[C@@H](CCCNC(=N)N)C(=O)N[C@@H](CC(C)C)C(=O)N[C@@H](Cc1c[nH]c2ccccc12)C(=O)N[C@@H](CCCNC(=N)N)C(=O)N[C@@H](CO)C(=O)N[C@@H](CC(C)C)C(=O)N[C@@H](Cc1c[nH]c2ccccc12)C(=O)N[C@@H](CCCNC(=N)N)C(=O)N[C@@H](CC(C)C)C(=O)N[C@@H](CC(C)C)C(=O)N[C@@H](Cc1c[nH]c2ccccc12)C(=O)N[C@@H](CCCCN)C(N)=O)[C@@H](C)O [Seq37] | 0.645 µM | > 1 µM | Mean Size (nm) [3]: 59.2 ± 14 nm; PI [3]: 0.24
8 | CSCC[C@H](NC(=O)[C@H](CCC(N)=O)NC(=O)[C@H](C)NC(=O)[C@H](CC(C)C)NC(=O)[C@@H](NC(=O)[C@H](CO)NC(=O)[C@H](CCC(N)=O)NC(=O)[C@H](CCC(=O)O)NC(=O)[C@H](CCCCN)NC(=O)[C@H](CC(C)C)NC(=O)[C@H](Cc1ccccc1)NC(=O)[C@H](C)NC(=O)[C@H](CO)NC(=O)[C@H](Cc1c[nH]c2ccccc12)NC(=O)[C@H](CCCCN)NC(=O)[C@@H]1CCCN1C(=O)[C@H](Cc1ccccc1)NC(=O)[C@H](CC(C)C)NC(=O)[C@H](CC(=O)O)NC(=O)[C@H](CCC(=O)O)NC(=O)[C@H](C)NC(=O)[C@H](CCC(=O)O)NC(=O)[C@H](Cc1c[nH]cn1)NC(=O)[C@H](CC(N)=O)NC(=O)[C@H](Cc1ccccc1)NC(=O)[C@H](CCCCN)NC(=O)[C@H](CC(=O)O)NC(=O)[C@H](CC(C)C)NC(=O)[C@H](Cc1ccccc1)NC(=O)[C@@H](NC(=O)[C@H](CCCCN)NC(=O)[C@H](C)NC(=O)[C@H](CCC(N)=O)NC(=O)[C@H](CCC(=O)O)NC(C)=O)[C@@H](C)O)[C@@H](C)O)C(=O)N[C@@H](Cc1ccc(O)cc1)C(=O)NCC(=O)NCCCCCC(=O)N[C@@H](CC(C)C)C(=O)N[C@@H](Cc1c[nH]c2ccccc12)C(=O)N[C@@H](CCCNC(=N)N)C(=O)N[C@@H](C)C(=O)N[C@@H](CC(C)C)C(=O)N[C@@H](Cc1c[nH]c2ccccc12)C(=O)N[C@@H](CCCNC(=N)N)C(=O)N[C@@H](CC(C)C)C(=O)N[C@@H](Cc1c[nH]c2ccccc12)C(=O)N[C@@H](CCCNC(=N)N)C(=O)N[C@@H](CO)C(=O)N[C@@H](CC(C)C)C(=O)N[C@@H](Cc1c[nH]c2ccccc12)C(=O)N[C@@H](CCCNC(=N)N)C(=O)N[C@@H](CC(C)C)C(=O)N[C@@H](CC(C)C)C(=O)N[C@@H](Cc1c[nH]c2ccccc12)C(=O)N[C@@H](CCCCN)C(N)=O [Seq39] | 0.0684 ± 0.01 µM | 0.0552 µM | Mean Size (nm) [3]: 48.5 ± 5 nm; PI [3]: 0.29; increase of potency/efficiency by covalent coupling to ADGN peptide [1]: 1.4 folds
9 | Ac-EQAKTFLDKFNHEAEDLF [Seq24] | 0.57 ± 0.03 µM | 1.3 µM | –
10 | Ac-G*NYNYLYRL*-Ava-LWRALWRLWRSLWRLLWK-NH2 [Seq14] | – | – | IC50 [1, 4]: > 10 µM; IC50 [2, 5]: > 10 µM
11 | Ac-K*VGGNYNYK*-Ava-LWRALWRLWRSLWRLLWK-NH2 [Seq13] | – | – | IC50 [1, 4]: > 10 µM; IC50 [2, 5]: > 10 µM
12 | Ac-KTFLDKFNHEAEDLF [Seq25] | 1.9 µM | 2.5 µM | –
13 | Ac-KTFLDKFNHEAEDLFYS [Seq26] | 2.1 µM | 1.9 µM | –
14 | Ac-NMTQGFWENPGGPTAWDLGK [Seq31] | > 10 µM | > 10 µM | IC50 [1, 6]: > 10 µM and 25 µM; IC50 [2, 7]: > 10 µM
15 | Ac-NMTQGFWENSMLTD [Seq30] | > 10 µM | > 10 µM | IC50 [1, 6]: > 10 µM; IC50 [2, 7]: > 10 µM
16 | Ac-S*KVGGNYNYLY*R-Ava/Ahx-LWRALWRLWRSLWRLLWK-NH2 [Seq12] | – | – | Mean Size (nm) [3]: 35.4 ± 5 nm; PI [3]: 0.21; blocked ACE2:SARS-CoV-2 Spike interaction [1]: blocked
17 | Ac-TAWDLGKGDFRI [Seq29] | > 10 µM | > 10 µM | IC50 [1, 6]: > 10 µM; IC50 [2, 7]: > 10 µM
18 | Ac-V*EGENCYF*Ava-LWRALWRLWRSLWRLLWK-NH2 [Seq18] | – | – | IC50 [1, 4]: > 10 µM; IC50 [2, 5]: > 10 µM
19 | GFQPTNGVK [Seq10] | > 10 µM | > 10 µM | –
20 | GNYNYLYRL [Seq3] | > 10 µM | > 10 µM | –
21 | KVGGNYNYL [Seq2] | > 10 µM | > 10 µM | –
22 | STEYQAGST [Seq5] | > 10 µM | > 10 µM | –
23 | SYGFQPTNGV [Seq9] | > 10 µM | > 10 µM | –
24 | TNGVGYQPY [Seq11] | > 1 µM | > 1 µM | –
25 | VEGFNCYFP [Seq7] | > 10 µM | > 10 µM | –
